Data: patent US8629168B2, “Benzoxazoles and oxazolopyridines being useful as janus kinases inhibitors” (priority 2006, dated 2014)

Molecular target: T1, GST-JAK2(808-1132) (Homo sapiens, UniProt O60674)
T1 construct: GST-JAK2(808-1132) is purchased from Invitrogen; purchased Invitrogen (Carlsbad, USA) #4288
Experiment: EPK JAK/TYK-kinase family profiling assay (Caliper mobility shift), JAK2
Type: biochemical
Conditions: Caliper mobility shift assay of Example 187, 20 μM ATP, read-out: IC50 with Test in present Example
In short: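 Caliper mobility-shift assay with the GST-tagged kinase domain and a fluorescently labeled peptide substrate plus ATP, run 60 min at 30° C and then stopped with EDTA buffer. Turnover was taken as the substrate/product ratio. Compounds were tested at eight final concentrations from 10 to 0.003 μM.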

T1 sequence (O60674 808-1132): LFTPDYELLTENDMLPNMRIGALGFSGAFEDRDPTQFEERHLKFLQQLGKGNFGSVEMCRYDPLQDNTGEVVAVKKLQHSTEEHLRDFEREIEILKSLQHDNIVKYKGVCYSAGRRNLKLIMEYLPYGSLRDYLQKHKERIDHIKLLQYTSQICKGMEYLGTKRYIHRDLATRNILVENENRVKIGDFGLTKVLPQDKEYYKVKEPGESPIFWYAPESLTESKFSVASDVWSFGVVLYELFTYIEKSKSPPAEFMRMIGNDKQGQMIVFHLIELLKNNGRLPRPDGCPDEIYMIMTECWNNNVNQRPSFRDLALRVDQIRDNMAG

SMILES	IC50 [nM]
COc1cc(Nc2nc3cccc(-c4ccc(CN5CCN(C)CC5)cc4)c3o2)cc(OC)c1OC [Example 137]	160
COc1cc(Nc2nc3cccc(-c4ccc(CO)cc4)c3o2)cc(OC)c1OC [Example 143, {4-[2-(3,4,5-Trimethoxy-phenylamino)-benzooxazol-7-yl]-phenyl}-methanol]	16.5
CCN1CCN(c2ccc(Nc3nc4ccnc(-c5cc(F)c(CN6CCOCC6)c(F)c5)c4o3)cc2C)CC1 [Example 152, [4-(3,5-Difluoro-4-morpholin-4-ylmethyl-phenyl)-oxazolo[5,4-c]pyridin-2-yl]-[4-(4-ethyl-piperazin-1-yl)-3-methyl-phenyl]-amine]	180
CCN1CCN(c2ccc(Nc3nc4ccnc(-c5cc(F)c(CN6CCS(=O)(=O)CC6)c(F)c5)c4o3)cc2C)CC1 [Example 153, {4-[4-(1,1-Dioxo-1lambda*6*-thiomorpholin-4-ylmethyl)-3,5-difluoro-phenyl]-oxazolo[5,4-c]pyridin-2-yl}-[4-(4-ethyl-piperazin-1-yl)-3-methyl-phenyl]-amine]	26
Cc1cc(Nc2nc3cccc(-c4cc(F)c(CN5CCS(=O)(=O)CC5)c(F)c4)c3o2)ccc1N1CCN(C2CC2)CC1 [Example 154, [4-(4-Cyclopropyl-piperazin-1-yl)-3-methyl-phenyl]-{7-[4-(1,1-dioxo-1lambda*6*-thiomorpholin-4-ylmethyl)-3,5-difluoro-phenyl]-benzooxazol-2-yl}-amine]	3.3
Cc1cc(Nc2nc3cccc(-c4cc(F)c(CN5CCS(=O)(=O)CC5)c(F)c4)c3o2)ccc1C(=O)N(C)CCN(C)C [Example 159, N-(2-Dimethylamino-ethyl)-4-{7-[4-(1,1-dioxo-1lambda*6*-thiomorpholin-4-ylmethyl)-3,5-difluoro-phenyl]-benzooxazol-2-ylamino}-2,N-dimethyl-benzamide]	6.2
Cc1cc(Nc2nc3cccc(-c4cc(F)c(CN5CCOCC5)c(F)c4)c3o2)ccc1N1CCN(C2CC2)CC1 [Example 160, [4-(4-Cyclopropyl-piperazin-1-yl)-3-methyl-phenyl]-[7-(3,5-difluoro-4-morpholin-4-ylmethyl-phenyl)-benzooxazol-2-yl]-amine]	18
Cc1cc(Nc2nc3cccc(-c4cc(F)c(CN5CCOCC5)c(F)c4)c3o2)cn(C)c1=O [Example 161, 5-[7-(3,5-Difluoro-4-morpholin-4-ylmethyl-phenyl)-benzooxazol-2-ylamino]-1,3-dimethyl-1H-pyridin-2-one]	80
Cc1cc(-c2cccc3nc(Nc4ccc(N5CCN(C6CC6)CC5)c(C)c4)oc23)ccc1C(=O)N1CCS(=O)(=O)CC1 [Example 162, (4-{2-[4-(4-Cyclopropyl-piperazin-1-yl)-3-methyl-phenylamino]-benzooxazol-7-yl}-2-methyl-phenyl)-(1,1-dioxo-1lambda*6*-thiomorpholin-4-yl)-methanone]	8.9
Cc1cc(Nc2nc3cccc(-c4cc(F)c(CN5CCOCC5)c(F)c4)c3o2)ccc1N1CCOCC1 [Example 163, [7-(3,5-Difluoro-4-morpholin-4-ylmethyl-phenyl)-benzooxazol-2-yl]-(3-methyl-4-morpholin-4-yl-phenyl)-amine]	11.6
Cc1cc(Nc2nc3cccc(-c4cc(F)c(CN5CCS(=O)(=O)CC5)c(F)c4)c3o2)ccc1N1CCOCC1 [Example 164, {7-[4-(1,1-Dioxo-1lambda*6*-thiomorpholin-4-ylmethyl)-3,5-difluoro-phenyl]-benzooxazol-2-yl}-(3-methyl-4-morpholin-4-yl-phenyl)-amine]	7.25
Cc1cc(Nc2nc3ccnc(-c4cc(F)c(CN5CCS(=O)(=O)CC5)c(F)c4)c3o2)ccc1C(=O)N(C)C [Example 168, 4-{4-[4-(1,1-Dioxo-1lambda*6*-thiomorpholin-4-ylmethyl)-3,5-difluoro-phenyl]-oxazolo[5,4-c]pyridin-2-ylamino}-2,N,N-trimethyl-benzamide]	130

Results, then the molecule that gave them:

IC50 [nM]	SMILES
14	COc1cc(Nc2nc3cccc(-c4ccc(CN5CCOCC5)cc4)c3o2)cc(OC)c1OC [Example 138, [7-(4-Morpholin-4-ylmethyl-phenyl)-benzooxazol-2-yl]-(3,4,5-trimethoxy-phenyl)-amine]
725	CNS(=O)(=O)c1ccc(-c2cccc3nc(Nc4ccc(C)c(OC)c4)oc23)cc1 [Example 144, 4-[2-(3-Methoxy-4-methyl-phenylamino)-benzooxazol-7-yl]-methyl-benzenesulfonamide]
55	COCCNC(=O)c1ccc(Nc2nc3cccc(-c4ccc(C(=O)N5CCOCC5)cc4)c3o2)cc1 [Example 145, N-(2-Methoxy-ethyl)-4-{7-[4-(morpholine-4-carbonyl)-phenyl]-benzooxazol-2-ylamino}-benzamide]
19.5	CN(C)C(=O)c1ccc(Nc2nc3cccc(-c4ccc(S(N)(=O)=O)cc4)c3o2)cc1 [Example 146, N,N-Dimethyl-4-[7-(4-sulfamoyl-phenyl)-benzooxazol-2-ylamino]-benzamide]
28	COCCNC(=O)c1ccc(Nc2nc3cccc(-c4ccc(CC(=O)N5CCOCC5)cc4)c3o2)cc1 [Example 147, N-(2-Methoxy-ethyl)-4-{7-[4-(2-morpholin-4-yl-2-oxo-ethyl)-phenyl]-benzooxazol-2-ylamino}-benzamide]
50	CS(=O)(=O)Nc1cccc(Nc2nc3cccc(-c4ccc(C(=O)N5CCOCC5)cc4)c3o2)c1 [Example 148, N-(3-{7-[4-(Morpholine-4-carbonyl)-phenyl]-benzooxazol-2-ylamino}-phenyl)-methanesulfonamide]
62	COC(=O)c1ccc(Nc2nc3cccc(-c4ccc(C(=O)N5CCOCC5)cc4)c3o2)cc1OC [Example 149, 2-Methoxy-4-{7-[4-(morpholine-4-carbonyl)-phenyl]-benzooxazol-2-ylamino}-benzoic acid methyl ester]
25	COc1cc(Nc2nc3cccc(-c4ccc(C(=O)N5CCOCC5)cc4)c3o2)ccc1C(=O)N(C)C [Example 150, 2-Methoxy-N,N-dimethyl-4-{7-[4-(morpholine-4-carbonyl)-phenyl]-benzooxazol-2-ylamino}-benzamide]
27.5	CN1CCN(c2ccc(Nc3nc4cccc(-c5ccc(C(C)(C)C(=O)N6CCOCC6)cc5)c4o3)cc2)CC1 [Example 151, 2-Methyl-2-(4-{2-[4-(4-methyl-piperazin-1-yl)-phenylamino]-benzooxazol-7-yl}-phenyl)-1-morpholin-4-yl-propan-1-one]
13.5	Cc1cc(-c2cccc3nc(Nc4ccc(N5CCN(C6CC6)CC5)c(C)c4)oc23)ccc1C(=O)N1CCOCC1 [Example 155, (4-{2-[4-(4-Cyclopropyl-piperazin-1-yl)-3-methyl-phenylamino]-benzooxazol-7-yl}-2-methyl-phenyl)-morpholin-4-yl-methanone]
20.5	Cc1cc(Nc2nc3cccc(-c4ccc(C(=O)N5CCOCC5)c(F)c4)c3o2)ccc1N1CCN(C2CC2)CC1 [Example 156, (4-{2-[4-(4-Cyclopropyl-piperazin-1-yl)-3-methyl-phenylamino]-benzooxazol-7-yl}-2-fluoro-phenyl)-morpholin-4-yl-methanone]
11.7	Cc1cc(Nc2nc3cccc(-c4ccc(C(C)(C)C(=O)N5CCOCC5)cc4)c3o2)ccc1N1CCN(C2CC2)CC1 [Example 157, 2-(4-{2-[4-(4-Cyclopropyl-piperazin-1-yl)-3-methyl-phenylamino]-benzooxazol-7-yl}-phenyl)-2-methyl-1-morpholin-4-yl-propan-1-one]
21	Cc1cc(Nc2nc3cccc(-c4cc(F)c(CN5CCOCC5)c(F)c4)c3o2)ccc1C(=O)N(C)CCN(C)C [Example 158, 4-[7-(3,5-Difluoro-4-morpholin-4-ylmethyl-phenyl)-benzooxazol-2-ylamino]-N-(2-dimethylamino-ethyl)-2,N-dimethyl-benzamide]
11	Cc1cc(Nc2nc3cccc(-c4ccc(C(=O)N5CCS(=O)(=O)CC5)cc4)c3o2)ccc1CN1CCOCC1 [Example 165, (1,1-Dioxo-1lambda*6*-thiomorpholin-4-yl)-{4-[2-(3-methyl-4-morpholin-4-ylmethyl-phenylamino)-benzooxazol-7-yl]-phenyl}-methanone]
11.1	Cc1cc(Nc2nc3cccc(-c4ccc(C(=O)N5CCOCC5)c(C)c4)c3o2)ccc1CN1CCOCC1 [Example 166, {2-Methyl-4-[2-(3-methyl-4-morpholin-4-ylmethyl-phenylamino)-benzooxazol-7-yl]-phenyl}-morpholin-4-yl-methanone]
14	Cc1cc(Nc2nc3cccc(-c4ccc(C(C)(C)C(=O)N5CCOCC5)cc4)c3o2)ccc1CN1CCOCC1 [Example 167, 2-Methyl-2-{4-[2-(3-methyl-4-morpholin-4-ylmethyl-phenylamino)-benzooxazol-7-yl]-phenyl}-1-morpholin-4-yl-propan-1-one]
